Data published in US10647702B2, “Aryl-substituted imidazoles” (St. Jude Children's Research Hospital, priority 2010, dated 2020).

Experiments:
[1] = Plasma stability, pooled human plasma; assay type: in vitro ADME; conditions: 37° C., up to 48 hr
Procedure: (§1) Compound stocks were 10 mM in DMSO. The internal standard was 10 μM warfarin in methanol. 1.9 ml mouse plasma (Fisher Scientific, catalog #: NC9050370) or pooled human plasma (Innovative Research Inc., catalog # IPLA-1) was added to the columns of 1, 4, 7 and 10 of a 2 ml 96-well deep well plate (pION Inc., MA, #110023); this was the master plate. 1.9 μl compound stock was added to each well with plasmas and mixed well. Using a multi-channel pipette, 600 μl from the columns of 1, 4, 7 and 10 were taken and added into the rest of the columns (fluids in column 1 added to columns 2 and 3, column 4 into 5 and 6, and so on). From the master plate, 65 μl were taken from each well and added into 8 storage plates (pION Inc., MA, #110323), each for a time point. The storage plates was then incubated at 37° C. and shaken at 60 rpm. Samples were taken at 0 min, 30 min, 1 hr, 2 hr, 4 hr, 8 hr, 24 hr and 48 hr. At each time point, 195 μl internal standard was added to quench the reaction. The plates were then centrifuged at 4000 rpm for 15 min and supernatant was analyzed by UPLC-MS. The compound was detected by SIR and quantitation was based on peak area ratio of test compound vs. the internal standard.

[2] = Plasma stability, mouse plasma; assay type: in vitro ADME; conditions: 37° C., up to 48 hr
Procedure: as §1

PBS stability = assay type: physicochemical; conditions: PBS pH 7.4, 37° C., up to 48 hr
Procedure: as §1, with “ml PBS (Mediatech Inc., Manassas, Va.,” for “ml mouse plasma (Fisher Scientific,”, “catalog #21-040-CM)” for “catalog #: NC9050370) or pooled human plasma (Innovative Research Inc., catalog # IPLA-1)”, “with […]” for “with plasmas”, “65 pil” for “65 μl”

[3] = Liver microsomal stability, human; assay type: in vitro ADME; conditions: for CLint scaled at 19.8 µM: both sexes, human, liver microsomes, pH 7.4, intrinsic clearance calculated from t1/2, read-out: Human liver microsome CLint′; for human liver microsome t(½): pooled human liver microsomes, 37° C.
Procedure: (§2) 1.582 mL of mouse liver microsome (20 mg/mL, female CD-1 mice, pooled, Fisher Scientific, # NC9567486) was mixed with 0.127 ml of 0.5M EDTA solution and 48.3 ml potassium phosphate buffer (0.1M, pH 7.4, 37° C.) to make 50 ml of mouse liver microsome solution. Human liver microsomal solution was made with human liver microsome (50 pooled mix gender, Fisher Scientific #50-722-516) the same way. 1 volume of 10 mM DMSO compound stock was mixed with 4 volume of acetonitrile to make 2 mM diluted compound stock in DMSO and acetonitrile. 37.83 μL, diluted compound stock was added to 3 mL liver microsomal solution and vortexed to make microsomal solution with compound. 1 ml of liver microsomal solution with compound is added to each well of a master storage plate (pION Inc., MA, #110323). All compounds are in triplicates. Mouse and human liver microsomes were tested side by side on the same plate. 175 μL of each well was dispensed from the master plate into 5 storage plates. For 0 hour time point, 450 pit pre-cooled (4° C.) internal standard (10 μM warfarin in methanol) was added to the first plate before the reaction starts. 5.25 ml of microsome assay solution A (Fisher Scientific, # NC9255727) was combined with 1.05 ml of solution B (Fisher Scientific, # NC9016235) in 14.7 ml of potassium phosphate buffer (0.1 M, pH 7.4). 45 μL of this A+B solution was added to each well of all the 96-well storage plates and mixed with pipette briefly. The plates are sealed, and all plates except 0-hr plate were incubated at 37° C., shaken at a speed of 60 rpm. 0.5 hr, 1 hr, 2 hr and 4 hr time points were taken. At each time point, 450 μL pre-cooled internal standard was added to the plate to quench the reaction. The quenched plate was then centrifuged (model 5810R, Eppendorf, Westbury, N.Y.) at 4000 rpm for 15 minutes. 150 μL supernatant was transferred to a 96-well plate and analyzed by UPLC-MS (Waters Inc., Milford, Mass.). The compounds and internal standard were detected by SIR. The log peak area ratio (compound peak area/internal standard peak area) was plotted vs time (hr) and the slope was determined to calculate the elimination rate constant [k=(−2.303)*slope]. The half life (hr) was calculated as t (1/2)=0.693/k. Intrinsic clearance was calculated as CLint′=(0.693/(t1/2))*(1/microsomal concentration in the reaction solution)*(45 mg microsome/gram liver)*(gram liver/kg b.w.), where microsomal concentration in the reaction solution is 0.5 mg/ml, and gram liver/kg b.w. of CD-1 female mice and human are 52 and 20, respectively.

[4] = Liver microsomal stability, mouse; assay type: in vitro ADME; conditions: for mouse liver microsome t(½): female CD-1 mouse liver microsomes, 37° C.; for CLint scaled at 19.8 µM: female, CD-1, mouse, liver microsomes, pH 7.4, intrinsic clearance calculated from t1/2, read-out: mouse liver microsome CLint′
Procedure: as §2

Compound	hPlasma stability t(½) [1] [h]	mPlasma stability t(½) [2] [h]	PBS pH 7.4 stability t(½) (PBS stability) [hr]	CLint scaled at 19.8 µM [3] [mL/min/kg]	human liver microsome t(½) [3] [h]	mouse liver microsome t(½) [4] [h]	CLint scaled at 19.8 µM [4] [mL/min/kg]
COc1ccc(C2=NC(c3cccc(C)c3)C(c3ccc(Cl)cc3)N2C(=O)N2CCNC(=O)C2)c(OC(C)C)c1 (centres unmarked) [SJ000558304-1]	>48	>48	>48	14.2	1.46	0.73	73.9
COc1ccc(C2=N[C@@H](c3cccc(Cl)c3)[C@@H](c3ccc(Cl)cc3)N2C(=O)N2CCNC(=O)C2)c(OC(C)C)c1 [SJ000558295-1]	>48	>48	>48	12.1	1.72	2.17	24.9
